Source: publication PMC10726358 (Journal of Medicinal Chemistry, 2023)

What was measured:
BRD2 BD2 [1] = molecular target: T1, BRD2 BD2 (Homo sapiens, UniProt P25440); assay: BRD2 BD2 TR-FRET assay; type: binding
T1 construct: BRD2 BD2; purchased DiscoverX
Procedure: (§1) The BRD4 BD1/BD2 TR-FRET assay had been used routinely for this optimization work, and in order to better understand the BET BD1 domain selectivity profile, 31 was tested in TR-FRET BRD2, BRD3, and BRDT assays.
(§2) All TR-FRET and hWB cytokine assays have been described previously.[54]

BRD3 BD1 [2] = molecular target: T2, BRD3 BD1 (Homo sapiens, UniProt Q15059); assay: BRD3 BD1 TR-FRET assay; type: binding
T2 construct: BRD3 BD1; purchased DiscoverX
T2 sequence (Q15059 34-140 limits assumed): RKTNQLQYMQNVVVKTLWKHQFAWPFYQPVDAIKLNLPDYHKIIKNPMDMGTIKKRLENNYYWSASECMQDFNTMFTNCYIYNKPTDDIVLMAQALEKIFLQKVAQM
Procedure: as §1, §2

BRD3 BD2 = BRD3 BD2 (Homo sapiens, UniProt Q15059); assay: BRD3 BD2 TR-FRET assay; type: binding
Procedure: as §1, §2

BRD2 BD2 [3] = molecular target: T1, BRD2 BD2; assay: BROMOscan BRD2 BD2; type: binding
Procedure: as §1
(§3) [52] BROMOscan recombinant protein binding assays were carried out at DiscoverX. (accessed April 4, 2023).

BRD3 BD1 [4] = molecular target: T2, BRD3 BD1; assay: BROMOscan BRD3 BD1; type: binding
Procedure: as §1, §3

CREBBP = molecular target: T3, CREBBP (Homo sapiens, UniProt Q92793); assay: BROMOscan CREBBP; type: binding
T3 construct: ≥2000-fold selectivity over all 20 non-BET bromodomains tested; purchased DiscoverX
Procedure: as §1, §3

BAZ2A = molecular target: T4, BAZ2A (Homo sapiens, UniProt Q9UIF9); assay: BROMOscan BAZ2A; type: binding
T4 construct: ≥2000-fold selectivity over all 20 non-BET bromodomains tested; purchased DiscoverX
T4 sequence (Q9UIF9 1793-1897 limits assumed): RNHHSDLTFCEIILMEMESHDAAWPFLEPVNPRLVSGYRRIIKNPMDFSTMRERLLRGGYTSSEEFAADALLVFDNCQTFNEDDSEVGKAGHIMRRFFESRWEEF
Procedure: as §1, §3

BRD8 BD2 = molecular target: T5, BRD8 BD2 (Homo sapiens, UniProt Q9H0E9); assay: BROMOscan BRD8 BD2; type: binding
T5 construct: BRD8 BD2; purchased DiscoverX
T5 sequence (Q9H0E9 1099-1207 limits assumed): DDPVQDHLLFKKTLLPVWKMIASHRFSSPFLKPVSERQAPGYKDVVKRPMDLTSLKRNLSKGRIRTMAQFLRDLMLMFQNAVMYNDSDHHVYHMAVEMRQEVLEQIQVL
Procedure: as §1, §3

PBRM1 BD5 = molecular target: T6, PBRM1 BD5 (Homo sapiens, UniProt Q86U86); assay: BROMOscan PBRM1 BD5; type: binding
T6 construct: PBRM1 BD5; purchased DiscoverX
T6 sequence (Q86U86 653-763 limits assumed): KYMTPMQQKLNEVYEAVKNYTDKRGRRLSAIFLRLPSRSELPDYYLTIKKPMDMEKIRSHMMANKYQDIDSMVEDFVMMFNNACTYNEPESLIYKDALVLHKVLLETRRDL
Procedure: as §1, §3

PCAF = molecular target: T7, PCAF (Homo sapiens, UniProt Q92831); assay: BROMOscan PCAF; type: binding
T7 construct: ≥2000-fold selectivity over all 20 non-BET bromodomains tested; purchased DiscoverX
T7 sequence (Q92831 723-827 limits assumed): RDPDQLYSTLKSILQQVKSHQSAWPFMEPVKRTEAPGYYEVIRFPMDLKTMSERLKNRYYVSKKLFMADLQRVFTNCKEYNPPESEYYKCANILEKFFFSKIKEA
Procedure: as §1, §3

[5] = test system: 12 multiplex human primary-cell-based assays; assay: BioMAP Diversity PLUS platform
Procedure: The X-axis lists the quantitative protein-based biomarker readouts measured in each system. The Y-axis represents a log-transformed ratio of the biomarker readouts for the drug-treated sample (n = 1) over vehicle controls (n ≥ 6). […] Biomarker key activities are described as modulated if these activities increase in some systems but decrease in others.
31 was added 1 h before stimulation of the cells and was present during the entire incubation period of the assays.

Alpha 2C Adrenoceptor = molecular target: T8, Alpha 2C Adrenoceptor (Homo sapiens, UniProt P18825); assay: Cross screening: Alpha 2C Adrenoceptor agonist; type: biochemical
T8 construct: purchased GSK enhanced cross-screening panel (in-house)
T8 sequence (P18825 whole entry): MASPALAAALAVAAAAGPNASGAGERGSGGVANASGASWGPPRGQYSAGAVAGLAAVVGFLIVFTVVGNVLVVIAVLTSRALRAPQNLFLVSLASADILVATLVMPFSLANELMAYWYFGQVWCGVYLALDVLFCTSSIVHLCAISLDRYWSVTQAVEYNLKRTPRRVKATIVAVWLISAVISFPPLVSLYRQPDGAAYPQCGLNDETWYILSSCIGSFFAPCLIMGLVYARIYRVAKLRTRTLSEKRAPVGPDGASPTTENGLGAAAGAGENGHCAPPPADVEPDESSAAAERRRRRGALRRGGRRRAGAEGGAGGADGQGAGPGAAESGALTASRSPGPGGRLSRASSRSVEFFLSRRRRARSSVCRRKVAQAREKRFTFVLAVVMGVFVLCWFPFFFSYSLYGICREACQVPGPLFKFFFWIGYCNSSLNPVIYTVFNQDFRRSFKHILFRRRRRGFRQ

M2 (CHRM2) [6] = molecular target: T9, M2 (CHRM2) (Homo sapiens, UniProt P08172); assay: Cross screening: M2 (CHRM2) Human Ag; type: biochemical
T9 construct: purchased GSK enhanced cross-screening panel (in-house)
T9 sequence (P08172 whole entry): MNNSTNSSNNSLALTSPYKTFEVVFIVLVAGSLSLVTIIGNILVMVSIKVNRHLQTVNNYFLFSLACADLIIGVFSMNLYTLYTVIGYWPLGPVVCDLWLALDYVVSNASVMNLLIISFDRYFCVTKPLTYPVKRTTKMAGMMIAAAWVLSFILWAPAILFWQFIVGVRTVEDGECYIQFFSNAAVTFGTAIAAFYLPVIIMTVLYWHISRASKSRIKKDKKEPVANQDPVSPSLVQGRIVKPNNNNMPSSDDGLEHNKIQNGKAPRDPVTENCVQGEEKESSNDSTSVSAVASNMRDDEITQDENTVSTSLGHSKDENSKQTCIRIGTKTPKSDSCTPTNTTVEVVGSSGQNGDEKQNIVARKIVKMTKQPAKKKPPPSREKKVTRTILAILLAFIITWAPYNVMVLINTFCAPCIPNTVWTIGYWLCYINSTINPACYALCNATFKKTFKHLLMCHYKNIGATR

5-HT2A [7] = molecular target: T10, 5-HT2A (Homo sapiens, UniProt P28223); assay: Cross screening: 5-HT2A Agonist; type: biochemical
T10 construct: purchased GSK enhanced cross-screening panel (in-house)
T10 sequence (P28223 whole entry): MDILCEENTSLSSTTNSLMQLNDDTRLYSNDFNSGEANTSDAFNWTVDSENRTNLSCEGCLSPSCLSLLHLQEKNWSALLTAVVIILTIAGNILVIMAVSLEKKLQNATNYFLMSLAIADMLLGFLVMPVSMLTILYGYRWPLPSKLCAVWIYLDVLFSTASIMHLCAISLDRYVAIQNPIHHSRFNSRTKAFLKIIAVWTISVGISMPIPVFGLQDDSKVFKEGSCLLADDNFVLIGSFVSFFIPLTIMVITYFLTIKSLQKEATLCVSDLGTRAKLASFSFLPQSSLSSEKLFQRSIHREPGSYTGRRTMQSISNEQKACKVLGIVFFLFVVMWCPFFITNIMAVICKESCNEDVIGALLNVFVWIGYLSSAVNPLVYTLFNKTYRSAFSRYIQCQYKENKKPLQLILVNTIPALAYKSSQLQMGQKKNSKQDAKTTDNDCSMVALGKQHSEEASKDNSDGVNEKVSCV

5-HT2C = molecular target: T11, 5-HT2C (Homo sapiens, UniProt P28335); assay: Cross screening: 5-HT2C Agonist; type: biochemical
T11 construct: purchased GSK enhanced cross-screening panel (in-house)

[8] = molecular target: T12, Aryl Hydrocarbon Receptor (Homo sapiens, UniProt P35869); assay: Cross screening: Aryl Hydrocarbon Receptor; type: biochemical
T12 construct: purchased GSK enhanced cross-screening panel (in-house)

AR = molecular target: T13, AR (Homo sapiens, UniProt P10275); assay: Cross screening: AR Agonist; type: biochemical
T13 construct: purchased GSK enhanced cross-screening panel (in-house)

Alpha 1 nAChR = molecular target: T14, Alpha 1 nAChR (Homo sapiens, UniProt P02708+P07510+Q07001); assay: Cross screening: Alpha 1 nAChR Agonist; type: biochemical
T14 construct: purchased GSK enhanced cross-screening panel (in-house)

OPRK1 = molecular target: T15, OPRK1 (Homo sapiens, UniProt P41145); assay: Cross screening: OPRK1 Agonist; type: biochemical
T15 construct: purchased GSK enhanced cross-screening panel (in-house)

Kv1.5 (KCNA5) = molecular target: T16, Kv1.5 (KCNA5) (Homo sapiens, UniProt P22460); assay: Cross screening: Kv1.5 (KCNA5) blocker; type: biochemical
T16 construct: purchased GSK enhanced cross-screening panel (in-house)

Cyclooxygenase 2 (COX-2) = molecular target: T17, Cyclooxygenase 2 (COX-2) (Homo sapiens, UniProt P35354); assay: Cross screening: Cyclooxygenase 2 (COX-2) antagonist; type: biochemical
T17 construct: purchased GSK enhanced cross-screening panel (in-house)

NET = molecular target: T18, NET (Homo sapiens, UniProt P23975); assay: Cross screening: NET blocker; type: biochemical
T18 construct: purchased GSK enhanced cross-screening panel (in-house)

LCK = molecular target: T19, LCK (Homo sapiens, UniProt P06239); assay: Cross screening: LCK inhibitor; type: biochemical
T19 construct: purchased GSK enhanced cross-screening panel (in-house)

PI3K-gamma = molecular target: T20, PI3K-gamma (Homo sapiens, UniProt P48736); assay: Cross screening: PI3K-gamma inhibitor; type: biochemical
T20 construct: purchased GSK enhanced cross-screening panel (in-house)

PDE4B = molecular target: T21, PDE4B (Homo sapiens, UniProt Q07343); assay: Cross screening: PDE4B antagonist; type: biochemical
T21 construct: purchased GSK enhanced cross-screening panel (in-house)

NMDA 1A/2B = molecular target: T22, NMDA 1A/2B (Homo sapiens, UniProt Q05586+Q13224); assay: Cross screening: NMDA 1A/2B antagonist; type: biochemical
T22 construct: purchased GSK enhanced cross-screening panel (in-house)
T22 sequence (Q13224 27-1484, other chains not shown): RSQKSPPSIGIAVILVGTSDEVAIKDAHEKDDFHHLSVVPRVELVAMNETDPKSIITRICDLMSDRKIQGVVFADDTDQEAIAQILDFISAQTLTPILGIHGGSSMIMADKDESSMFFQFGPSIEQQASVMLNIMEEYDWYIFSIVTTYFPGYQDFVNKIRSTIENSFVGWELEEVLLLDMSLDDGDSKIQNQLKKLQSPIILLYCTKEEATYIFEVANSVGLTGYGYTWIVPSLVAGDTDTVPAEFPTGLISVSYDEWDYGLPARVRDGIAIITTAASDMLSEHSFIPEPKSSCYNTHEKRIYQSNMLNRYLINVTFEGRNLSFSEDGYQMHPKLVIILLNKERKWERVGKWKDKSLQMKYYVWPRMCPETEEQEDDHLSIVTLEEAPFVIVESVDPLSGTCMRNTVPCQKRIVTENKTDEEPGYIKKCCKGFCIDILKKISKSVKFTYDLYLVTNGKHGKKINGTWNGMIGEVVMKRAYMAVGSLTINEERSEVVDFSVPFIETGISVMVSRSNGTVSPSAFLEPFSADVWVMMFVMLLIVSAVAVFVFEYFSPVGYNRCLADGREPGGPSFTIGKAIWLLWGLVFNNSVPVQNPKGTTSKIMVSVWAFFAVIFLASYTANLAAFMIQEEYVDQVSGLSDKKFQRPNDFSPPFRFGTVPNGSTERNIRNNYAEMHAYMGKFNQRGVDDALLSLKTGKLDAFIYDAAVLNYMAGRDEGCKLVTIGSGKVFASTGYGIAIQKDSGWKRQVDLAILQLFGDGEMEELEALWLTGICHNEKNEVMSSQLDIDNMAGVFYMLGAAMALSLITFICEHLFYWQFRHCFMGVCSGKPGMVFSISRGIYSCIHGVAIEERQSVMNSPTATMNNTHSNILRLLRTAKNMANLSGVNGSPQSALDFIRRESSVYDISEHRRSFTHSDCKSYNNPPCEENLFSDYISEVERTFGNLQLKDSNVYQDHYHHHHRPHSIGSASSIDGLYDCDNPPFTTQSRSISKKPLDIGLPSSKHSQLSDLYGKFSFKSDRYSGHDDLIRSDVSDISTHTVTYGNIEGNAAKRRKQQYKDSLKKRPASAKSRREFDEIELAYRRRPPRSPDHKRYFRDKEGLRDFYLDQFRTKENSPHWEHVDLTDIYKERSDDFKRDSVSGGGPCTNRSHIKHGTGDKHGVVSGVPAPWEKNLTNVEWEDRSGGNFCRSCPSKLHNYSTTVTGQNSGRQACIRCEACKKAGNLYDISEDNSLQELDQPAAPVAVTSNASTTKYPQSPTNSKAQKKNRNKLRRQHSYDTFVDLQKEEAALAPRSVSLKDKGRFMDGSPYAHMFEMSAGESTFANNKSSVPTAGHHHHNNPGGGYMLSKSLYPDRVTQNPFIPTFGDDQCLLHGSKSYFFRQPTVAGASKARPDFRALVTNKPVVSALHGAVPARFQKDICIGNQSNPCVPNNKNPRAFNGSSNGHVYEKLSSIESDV

M2 (CHRM2) [9] = molecular target: T9, M2 (CHRM2); assay: Cross screening: M2 (CHRM2) antagonist; type: biochemical
Alpha 1B = molecular target: T23, Alpha 1B (Homo sapiens, UniProt P35368); assay: Cross screening: Alpha 1B antagonist; type: biochemical
T23 construct: purchased GSK enhanced cross-screening panel (in-house)
T23 sequence (P35368 whole entry): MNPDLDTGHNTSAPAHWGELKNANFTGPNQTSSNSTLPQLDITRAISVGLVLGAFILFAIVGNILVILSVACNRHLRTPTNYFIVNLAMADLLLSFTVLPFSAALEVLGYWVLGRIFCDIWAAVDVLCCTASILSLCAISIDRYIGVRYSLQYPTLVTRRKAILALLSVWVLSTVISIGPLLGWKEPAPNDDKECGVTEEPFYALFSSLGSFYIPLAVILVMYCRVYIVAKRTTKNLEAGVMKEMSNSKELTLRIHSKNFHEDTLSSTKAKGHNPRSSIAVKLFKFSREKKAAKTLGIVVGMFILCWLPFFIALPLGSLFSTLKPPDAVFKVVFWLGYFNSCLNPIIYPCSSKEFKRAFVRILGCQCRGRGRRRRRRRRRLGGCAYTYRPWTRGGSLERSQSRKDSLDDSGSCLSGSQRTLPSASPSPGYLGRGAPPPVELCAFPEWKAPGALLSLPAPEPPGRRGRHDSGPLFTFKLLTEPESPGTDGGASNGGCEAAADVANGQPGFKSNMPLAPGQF

M1 = molecular target: T24, M1 (Homo sapiens, UniProt P11229); assay: Cross screening: M1 antagonist; type: biochemical
T24 construct: purchased GSK enhanced cross-screening panel (in-house)
T24 sequence (P11229 whole entry): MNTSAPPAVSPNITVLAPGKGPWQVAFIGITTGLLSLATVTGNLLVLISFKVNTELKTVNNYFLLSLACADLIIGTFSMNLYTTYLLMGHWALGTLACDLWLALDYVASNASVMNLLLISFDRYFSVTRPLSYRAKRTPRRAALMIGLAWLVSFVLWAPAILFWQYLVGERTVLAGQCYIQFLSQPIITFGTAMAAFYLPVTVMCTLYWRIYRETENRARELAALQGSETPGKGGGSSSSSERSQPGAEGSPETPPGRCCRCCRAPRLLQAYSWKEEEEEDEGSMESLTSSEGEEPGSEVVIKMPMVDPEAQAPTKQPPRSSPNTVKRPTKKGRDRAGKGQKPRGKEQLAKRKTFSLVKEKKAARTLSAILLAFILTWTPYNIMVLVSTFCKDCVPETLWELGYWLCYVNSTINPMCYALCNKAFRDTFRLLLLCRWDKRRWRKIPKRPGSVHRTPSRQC

NK1 = molecular target: T25, NK1 (Homo sapiens, UniProt P25103); assay: Cross screening: NK1 antagonist; type: biochemical
T25 construct: purchased GSK enhanced cross-screening panel (in-house)

5-HT2A [10] = molecular target: T10, 5-HT2A; assay: Cross screening: 5-HT2A antagonist; type: biochemical
V1a = molecular target: T26, V1a (Homo sapiens, UniProt P37288); assay: Cross screening: V1a antagonist; type: biochemical
T26 construct: purchased GSK enhanced cross-screening panel (in-house)
T26 sequence (P37288 whole entry): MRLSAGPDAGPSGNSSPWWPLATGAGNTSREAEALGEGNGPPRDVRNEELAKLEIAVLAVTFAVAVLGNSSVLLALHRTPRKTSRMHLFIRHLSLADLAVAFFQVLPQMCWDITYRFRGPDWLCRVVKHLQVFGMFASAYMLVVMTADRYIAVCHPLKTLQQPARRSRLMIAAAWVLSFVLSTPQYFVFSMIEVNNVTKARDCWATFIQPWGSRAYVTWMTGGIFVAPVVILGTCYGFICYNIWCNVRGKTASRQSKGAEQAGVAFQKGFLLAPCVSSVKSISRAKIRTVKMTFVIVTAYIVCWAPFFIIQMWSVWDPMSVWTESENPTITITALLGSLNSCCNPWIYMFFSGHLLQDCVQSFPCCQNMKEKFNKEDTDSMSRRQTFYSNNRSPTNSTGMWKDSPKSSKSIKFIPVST

[11] = Chromatographic LogD at pH 7.4

T1 sequence (P25440 344-453 limits assumed): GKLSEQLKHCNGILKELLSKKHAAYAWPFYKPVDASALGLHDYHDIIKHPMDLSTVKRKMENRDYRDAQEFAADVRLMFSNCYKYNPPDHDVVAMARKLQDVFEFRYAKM

SMILES: Cc1cc(-c2nc3ccccc3n2C[C@@H]2CCCN(C(=O)C3CCN(C(C)C)CC3)C2)cn(C)c1=O [Compound 31, (S)-5-(1-((1-(1-Isopropylpiperidine-4-carbonyl)piperidin-3-yl)methyl)-1H-benzo [d]imidazole-2-yl)-1,3-dimethylpyridin-2(1H)-one]
- BRD2 BD2 TR-FRET pIC50 (BRD2 BD2 [1]): 5.4
- BRD3 BD1 TR-FRET pIC50 (BRD3 BD1 [2]): 7.7
- fold selectivity BRD3 BD1 over BD2 (BRD3 BD1 [2]; TR-FRET): 400 fold
- BRD3 BD2 TR-FRET pIC50 (BRD3 BD2): 5.1
- BROMOscan pKd BRD2 BD2 (BRD2 BD2 [3]): 5.5
- BROMOscan pKd BRD3 BD1 (BRD3 BD1 [4]): 8.4
- fold selectivity BRD3 BD1 over BD2 (BRD3 BD1 [4]; BROMOscan): 400 fold
- Kd (CREBBP): 20 µM
- Kd (BAZ2A): > 31.6 µM
- Kd (BRD8 BD2): > 31.6 µM
- Kd (PBRM1 BD5): > 31.6 µM
- Kd (PCAF): > 31.6 µM
- BioMAP immune-modulatory biomarker levels ([5]; 10 μM to 160 nM, MCP-1, IL-8, IL-1, IL-10, M-CSF, IL-6): decreases
- BioMAP antiproliferative effects ([5]; 10 μM to 160 nM, human primary T cells, coronary artery smooth muscle cells, endothelial cells, fibroblasts): antiproliferative effects
- BioMAP cytotoxicity ([5]; 10 μM, […], 630 nM, 160 nM): No cytotoxicity was observed
- pXC50 Alpha 2C Adrenoceptor agonist (Alpha 2C Adrenoceptor): < 4.0
- pXC50 M2 (CHRM2) Human Ag (M2 (CHRM2) [6]): < 4.3
- pXC50 5-HT2A Agonist (5-HT2A [7]): < 4.0
- pXC50 5-HT2C Agonist (5-HT2C): < 4.0
- pXC50 Aryl Hydrocarbon Receptor [8]: < 4.0
- pXC50 AR Agonist (AR): < 4.0
- pXC50 Alpha 1 nAChR Agonist (Alpha 1 nAChR): < 4.2
- pXC50 OPRK1 Agonist (OPRK1): < 4.0
- pXC50 Kv1.5 (KCNA5) blocker (Kv1.5 (KCNA5)): < 4.3
- pXC50 Cyclooxygenase 2 (COX-2) antagonist (Cyclooxygenase 2 (COX-2)): < 4.0
- pXC50 NET blocker (NET): < 4.0
- pXC50 LCK inhibitor (LCK): < 4.5
- pXC50 PI3K-gamma inhibitor (PI3K-gamma): < 4.5
- pXC50 PDE4B antagonist (PDE4B): < 4.0
- pXC50 NMDA 1A/2B antagonist (NMDA 1A/2B): < 4.0
- pXC50 M2 (CHRM2) antagonist (M2 (CHRM2) [9]): < 4.3
- pXC50 Alpha 1B antagonist (Alpha 1B): < 4.6
- pXC50 M1 antagonist (M1): < 4.3
- pXC50 NK1 antagonist (NK1): < 4.6
- pXC50 5-HT2A antagonist (5-HT2A [10]): < 4.0
- pXC50 V1a antagonist (V1a): < 4.3
- pKa (pKa of the basic amine): 9.6
- PFI (property forecast index) ([11]; chromLogDpH7.4 + number of aromatic rings): 4.7
- chromatographic logD ([11]; pH 7.4): 1.7
